From patent US10501494B2, “Uses of peptides to treat brain injury and disease” (priority 2013, dated 2019)
Read-outs that look alike come from different tables or passages of the source.

Experiments:
inflammatory cytokines [1] = settings: Rat; unpublished
inflammatory cytokines [2] = settings: Rat; Padi, 2012; cited from earlier work
[3] = nerve injury model; Padi; cited from earlier work
CCR2 (MCP-1) = target: T1, CCR2 (MCP-1) (Homo sapiens, UniProt P41597); test: MCP-1 elicited chemotaxis of human monocytes, all-D-pentapeptides (FIG. 2); type: cell-based; settings: 20 pM peptide for 30 minutes, MCP-1 0.6 nM for 2 hours, purified human monocytes
T1 construct: Purified human monocytes were treated with 20 pM of All-D-pentapeptides; endogenous in cells; host or cells: purified human monocytes
From the text: A representative experiment is shown comprising triplicate determinations and is presented as relative fluorescence units, Mean±SEM.

[4] = test system: chemokine receptor 8 (CCR8); test: Blocking of chemokine receptor 8; type: cell-based
From the text: The peptides share activity to block diverse chemokine receptors. […] Thus again, with a different receptor target, the all-D peptide performs very similarly to its mostly L-amino acid prototype first described in Pert, 1986. (FIG. 3).

CCL2/CCR2 = CCL2/CCR2 (Homo sapiens, UniProt P41597); settings: human monocytes
MIP-1β (CCL4)/CCR5 = MIP-1β (CCL4)/CCR5 (Homo sapiens, UniProt P51681); settings: low (sub-pM) concentrations, MIP-1β 50 ng/mL, monocytes treated with GM-CSF for 48 hours
From the text: It is compared for biopotency with an all-D amino acid close analog whereby all of the amino acids are made in the D form (RAP-310) to block the CCR5 chemokine receptors.
Data are the average of triplicate determinations. Data are presented as Mean±SEM.

[5] = Survival of MethA ascites tumor-bearing mice treated with LPS; type: in vivo; settings: 1 mg/Kg, 50 μgm LPS i.p.; vehicle control 5/20
Protocol: Associated with the injection of LPS is the extensive production of tumor necrosis factor alpha (TNF-α). Mice injected with recombinant human TNF-α develop pilo erection of the hair (ruffling), diarrhea and a withdrawn and unkempt appearance, followed by death if sufficient amounts are given. Rats treated with TNF become hypotensive, tachypneic and die of sudden respiratory arrest. Administration of DAPTA (1 mg/Kg) to MethA ascites tumor-bearing mice that were treated with 50 μgm LPS by i.p. injection, had better survival (15/20 in the DAPTA treated group compared to 5/20 in the vehicle control treated group). Thus DAPTA blocks septic shock via innate immune pathways, like the Toll receptors, that cause inflammation in the brain and that are typically activated in injuries.

[6] = target: CCL2 (MCP-1) chemotaxis, CCR5/CCR2 (Homo sapiens, UniProt P41597); settings: human monocytes, FIG. 1
From the text: Triplicate determinations were made and results are expressed as the mean plus or minus SEM. The experiment shown is a direct comparison among all RAPs. Statistical analysis was by unpaired t-test, with significance set at the p<0.01 (*) level for difference from CCL2 only chemotaxis.

[7] = test system: microglial and astrocytes; settings: daily peripheral administration, hippocampus; cited from earlier work
inflammatory cytokines [8] = settings: Hu; Ruff, 2003; cited from earlier work

T1 sequence (P41597 whole entry): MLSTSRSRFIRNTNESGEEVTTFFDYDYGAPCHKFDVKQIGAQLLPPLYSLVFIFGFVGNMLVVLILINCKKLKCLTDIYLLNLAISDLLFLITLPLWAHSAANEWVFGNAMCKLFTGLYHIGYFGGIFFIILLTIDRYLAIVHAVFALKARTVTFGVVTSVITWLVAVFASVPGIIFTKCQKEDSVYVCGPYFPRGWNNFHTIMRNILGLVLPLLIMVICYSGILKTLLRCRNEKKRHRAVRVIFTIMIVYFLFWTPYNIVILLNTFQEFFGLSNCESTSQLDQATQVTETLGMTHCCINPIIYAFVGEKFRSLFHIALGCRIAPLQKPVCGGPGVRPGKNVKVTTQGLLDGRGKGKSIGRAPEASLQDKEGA
Sequence of CCL2 (MCP-1) chemotaxis, CCR5/CCR2 (P41597 whole entry): as above
Sequence of CCL2/CCR2 (P41597 whole entry): as above
Sequence of MIP-1β (CCL4)/CCR5 (P51681 whole entry): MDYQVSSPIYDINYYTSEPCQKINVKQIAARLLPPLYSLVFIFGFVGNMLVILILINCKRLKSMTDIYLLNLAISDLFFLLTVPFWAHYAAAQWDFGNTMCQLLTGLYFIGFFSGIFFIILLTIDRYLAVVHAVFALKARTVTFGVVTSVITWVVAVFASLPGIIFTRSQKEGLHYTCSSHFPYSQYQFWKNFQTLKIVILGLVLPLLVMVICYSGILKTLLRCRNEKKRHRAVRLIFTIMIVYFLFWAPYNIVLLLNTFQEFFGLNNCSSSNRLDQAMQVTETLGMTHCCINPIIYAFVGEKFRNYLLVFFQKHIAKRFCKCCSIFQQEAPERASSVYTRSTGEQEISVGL

In the case of C[C@H](O)[C@@H](N)C(=O)N[C@@H](C(=O)N[C@H](CC(N)=O)C(=O)N[C@H](Cc1ccc(O)cc1)C(=O)N[C@@H](C(=O)O)[C@H](C)O)[C@H](C)O [RAP-103, All-D-TTNYT], the CCL2 change (inflammatory cytokines [1]) is reported as “decrease”, the CCL3 change (inflammatory cytokines [1]) is reported as “decrease” and the CCR2 change (inflammatory cytokines [1]) is reported as “decrease”. The CCR5 change (inflammatory cytokines [1]) was “decrease”, the MCP-1 change (inflammatory cytokines [1]) was “decrease” and the MIP-1α change (inflammatory cytokines [1]) was “decrease”. For the same molecule, the TNF-α change (inflammatory cytokines [1]) was “decrease”, the IL-1β change (inflammatory cytokines [2]) was “decrease” and the IL-6 change (inflammatory cytokines [2]) was “decrease”. The “inflammation, cytokine secretion and monocyte infiltration” value [3] was “blocks”.

In the case of Asn-Thr-Arg-Tyr-Arg, the “inhibition of MCP-1 elicited chemotaxis” value (CCR2 (MCP-1)) is reported as “efficacious”.

In the case of C[C@H](O)[C@@H](NC(=O)[C@@H](Cc1ccc(O)cc1)NC(=O)[C@@H](CC(N)=O)NC(=O)[C@H](NC(=O)[C@H](NC(=O)[C@H](NC(=O)[C@@H](CO)NC(=O)[C@@H](C)N)[C@H](C)O)[C@H](C)O)[C@H](C)O)C(=O)O [RAP-310], the “blocking of CCR8” value [4] is reported as “comparable potency”, the “loss of potency in blocking CCL2-elicited chemotaxis compared to RAP-101” value (CCL2/CCR2) is reported as “minimal loss of potency” and the “potency to block CCR5-mediated human monocyte chemotaxis” value (MIP-1β (CCL4)/CCR5) is reported as “comparable potency”.

With “Ile-Asn-Asn-Tyr-Thr (INNYT; Human immunodeficiency virus)” the “inhibition of MCP-1 elicited chemotaxis” value (CCR2 (MCP-1)) was “efficacious”.

With “Asn-Thr-Ser-Tyr-Arg (NTSYR; Human immunodeficiency virus)” the “inhibition of MCP-1 elicited chemotaxis” value (CCR2 (MCP-1)) was “efficacious”.

With C[C@@H](N)C(=O)N[C@@H](CO)C(=O)N[C@H](C(=O)N[C@H](C(=O)N[C@H](C(=O)N[C@@H](CC(N)=O)C(=O)N[C@@H](Cc1ccc(O)cc1)C(=O)N[C@H](C(N)=O)[C@@H](C)O)[C@@H](C)O)[C@@H](C)O)[C@@H](C)O [RAP-101, D-Ala1-STTTNYT-NH2] the “blocking of CCR8” value [4] was “blocks”, the survival [5] was 15/20 and the “potency to block CCL2 (MCP-1) chemotaxis” value [6] was “most potent”. The “inflammatory response induced by LPS (number and reactive state of microglial and astrocytes, NFkB expression)” value [7] was “dramatically attenuated”, the IL-1 change (inflammatory cytokines [8]) was “decrease” and the IL-6 change (inflammatory cytokines [8]) was “decrease”. The IL-8 change (inflammatory cytokines [8]) was “decrease” and the TNF-α change (inflammatory cytokines [8]) was “decrease”.

In the case of “Ile-Asp-Asn-Tyr Thr (IDNYT; Human immunodeficiency virus)”, the “inhibition of MCP-1 elicited chemotaxis” value (CCR2 (MCP-1)) is reported as “efficacious”.

With “Thr-Thr-Ser-Tyr-Thr (TTSYT; Human immunodeficiency virus)” the “inhibition of MCP-1 elicited chemotaxis” value (CCR2 (MCP-1)) was “efficacious”.

For “Glu-Thr-Trp-Tyr-Ser (ETWYS; Human immunodeficiency virus)”, the “inhibition of MCP-1 elicited chemotaxis” value (CCR2 (MCP-1)) was “efficacious”.

In the case of “Ser-Ser-Thr-Tyr-Arg (SSTYR; Human immunodeficiency virus)”, the “inhibition of MCP-1 elicited chemotaxis” value (CCR2 (MCP-1)) is reported as “efficacious”.

With “Asn-Thr-Ser-Tyr-Gly (NTSYG; Human immunodeficiency virus)” the “inhibition of MCP-1 elicited chemotaxis” value (CCR2 (MCP-1)) was “efficacious”.
